Measured values: patent US20260000658A1, “METHODS FOR THE TREATMENT OF PROLIFERATIVE GLOMERULONEPHRITIS” (INSTITUT NATIONAL DE LA SANTÉ ET DE LA RECHERCHE MÉDICALE, priority 2022, published 2026)

Tests used:
[1] = LC-MS analysis of alpelisib in kidneys after oral gavage; assay type: in vivo, mouse; details: 2 hours after oral gavage
Method: Each tissue type was homogenized in 100% cold methanol with tissue-to-solvent ratio of 1-mg tissue to 5-μl methanol. After sonication of 20 s, the tissue extract was centrifuged at 13,000 g for 30 min and then injected onto a Phenomenex Kinetex XB-C18 HPLC column (100 mm by 2.1 mm) at 45° C. Alpelisib was analyzed by reverse-phase HPLC (Shimadzu LCMS system 8040 interfaced with the LabSolutions software). Twenty […] of tissue extracts were injected onto a column, and the mobile phase used for the separation consisted of two eluants: Solvent A was 0.1% formic acid in ddH20, and solvent B was acetonitrile with 0.1% of formic acid. Compounds were separated by the following discontinuous gradient at a flow rate of 0.6 ml/min: The initial concentration of 20% in solvent B increase to 70% over 6 min, and this was followed by a decrease to 20% over the next minute, and the initial conditions were then maintained for 14 min. The alpelisib was monitored spectrophotometrically by absorbance (photodiode detector) from 205 to 600 nm and by tandem mass detection. The mass measurement was implemented in positive ion mode using multiple reaction monitoring (MRM) with an electrospray ionization source. […] The quantification was done by integration of the peak absorbance area using a calibration curve established with various known concentrations of alpelisib. […]

[2] = tested on: MRL-lpr mice; assay: MRL-lpr mice (lupus nephritis model) treated from 8 weeks old till death; assay type: in vivo, mouse
Text: A. Urinary albumin to creatinine ratio B. Blood urea nitrogen level, C. kidney to body weight ratio of NZBWF1/J mice at the time of sacrifice (4 weeks following either sham operation or uninephrectomy followed by the treatment either with vehicle or alpelisib) (n=5-15 mice per group). D. Representative P-S6RP/Nephrin coimmunofluorescence staining of kidneys from 4 weeks following either sham operation or uninephrectomy followed by the treatment either with vehicle or alpelisib) (n=4-6 mice per group). Scale bar […]. E. P-S6RP mean intensity quantification (n=4-6 mice per group). F. Col3a, G. Col1a, and H. Tnfα quantification of qRT-PCR analysis in the kidney cortex of kidneys at the time of sacrifice (4 weeks following either sham operation or uninephrectomy followed by the treatment either with vehicle or alpelisib) (n=5-15 mice per group). I. Kaplan-Meier survival curves of MRL-lpr mice treated either with vehicle or alpelisib (n=13-14 mice per group). J. Urinary albumin to creatinine ratio of MRL-lpr mice treated either with vehicle or alpelisib from 8 weeks old till death (n=13-14 mice per group). K. Vehicle treated mice, and L. alpelisib treated mice of the trajectory of urinary albumin to creatinine ratio of MRL-lpr mice (n=13-14 mice per group).
For the uninephrectomy experiments, the right kidneys were removed under anesthesia. For the medical treatment of mice, 50 mg kg −1 alpelisib (MedChem Tronica) in 1% carboxymethylcellulose (Sigma Aldrich)+0.5% Tween (Sigma Aldrich) or vehicle (1% carboxymethylcellulose+0.5% Tween) was administered by oral gavage daily for the indicated periods of time. Blood and urines were obtained at the indicated times. At euthanasia, blood, urines, kidneys were harvested. In some experiments, spleens, hearts, and bone marrow (BM) in femurs and tibias were harvested as well. Tissues were fixed in 4% paraformaldehyde and paraffin embedded for immunohistochemical analysis, snap-frozen in Optimal Cutting Temperature (OCT), or stored at −80° C. for mRNA or protein analysis.
Mouse blood counts were analyzed using a hematology analyzer (ProCyte Dx; IDEXX Laboratories). Mouse serum creatinine, blood urea nitrogen, urinary albumin, and urinary creatinine were evaluated using an AU5800 (Beckman Coulter) autoanalyzer. Serum anti-dsDNA measurement was performed according to the manufacturer's instruction using mouse anti-dsDNA ELISA kit (LBIS). The absorbance was measured using Ininite M Nano (TECAN).
4-μm kidney sections were stained with periodic acid-Schiff (PAS), Masson's Trichrome (MT), Periodic acid metenamine silver (PAM) or Hematoxylin and Eosin (HE) staining for histological analysis. The degree of glomerular lesions was evaluated using the following scoring system: 0=no lesion, 1=affecting up to 25% of the glomerulus, 2=affecting 25-50% of the glomerulus, 3=affecting 50-75% of the glomerulus, and 4=affecting 75-100%. At least 50 glomeruli per sample were measured for each analysis. An indirect immunoperoxidase method was used for immunohistochemistry. Briefly, after deparaffinization, antigen retrieval was performed with citrate buffer (pH6) or Tris-EDTA buffer (pH9 or pH6) using microwave or high temperature (95° C.). Endogenous peroxidase activity was quenched using 3% hydrogen peroxide; nonspecific protein binding was blocked using 2.5% normal horse serum (Vector Laboratories), and endogenous biotin activity was quenched using the Avidin/Biotin Blocking Kit (Vector Laboratories). When using mouse primary antibodies on mouse tissue, Klear mouse blocking reagent (Diagomics) was used to block endogenous mouse immunoglobulins. After blocking, the tissue sections were incubated with the primary antibodies overnight at 4° C. […]

Cc1nc(NC(=O)N2CCC[C@H]2C(N)=O)sc1-c1ccnc(C(C)(C)C(F)(F)F)c1 [alpelisib, Alpelisib]
alpelisib in kidneys (LC-MS) [1]: detectable | kidney to body weight ratio ([2]; at sacrifice, vs vehicle): tendency to have a lower kidney to body weight ratio | survival / life expectancy (Kaplan-Meier) ([2]; females, from 8 weeks old till death): significant extension of life expectancy | trajectory of albuminuria before and after treatment introduction ([2]; from 8 weeks old): proteinuria improvement | glomerular lesions, kidney examination ([2]; vs vehicle): no glomerular lesions | kidney function ([2]; vs vehicle): improved kidney function | proteinuria (urinary albumin to creatinine ratio) ([2]; vs vehicle): less proteinuria
